# Experimental data taken from ChEMBL document CHEMBL3507680, “University of Dundee, Gates Library screen for HepG2 cell viability”.
# Test: Human HepG2 cell viability assay in 384 well format
# Format: toxicity, cell-based
# Parameters: dose 125 nL, time 70.5 hour; cytotoxicity at 70.5 h: concentration not given beside the values
# Conditions: HepG2 cells, read-out: Inhibition
row,Structure (SMILES),cytotoxicity at 70.5 h [%]
1,COc1cc(-n2cccc2)c(Cl)cc1C(N)=O,-3.56
2,Cn1c(N2CC[C@H](O)C2)nc2cc(C(N)=O)ccc21,5.31
3,CCOC(C)c1nc(CN2CCN(CC(F)F)CC2)cs1 (stereo unspecified),-5.97
4,Cc1nc(N2CCN(C)CC2)ncc1C(=O)N1C[C@@H](C)[C@@](C)(O)C1,4.1
5,O=C1CC(c2ccc(F)c(F)c2)c2snc(C(=O)O)c2N1 (stereo unspecified),8.54
6,CC(=O)N1CCc2nc(-c3ccccc3)nc(NC(C)C)c2CC1,-13.5
7,Cc1ccc([C@@H]2CN(C(=O)c3ccccc3C)C[C@H]2N(C)C)cc1,2.46
8,COCCN(Cc1ccoc1)S(=O)(=O)c1cccc(C(F)(F)F)c1,-13.5
9,CNC(=O)COC1COC2(CCN(Cc3cccnc3OC)CC2)C1 (stereo unspecified),-8.67
10,O=C1NCCCCC1NC(=O)N1CCc2ccccc21 (stereo unspecified),-14.4
11,CC(C)(C)c1nc(CN2CCCC(c3noc(C4CC4)n3)C2)no1 (stereo unspecified),-4.22
12,CS(=O)(=O)N1CCCC12CCCN(C(=O)c1ccc3[nH]ccc3c1)C2 (stereo unspecified),-10.6
13,CCCc1nc(NCC(=O)N2CCOCC2)c2c(n1)c(C)nn2CC,44.1
14,O=C(Cc1ccon1)N1CCN(c2ccc(F)cc2Cl)CC1,-6.01
15,CSCCNC(=O)C1CCC(=O)N(C2CCCC2)C1 (stereo unspecified),0.162
16,CC(C)NC(=O)N1CCN(CCn2cccn2)c2ncccc2C1,-2.7
17,O=S(=O)(C1CC1)N1CCOC2(COCCN(c3ncccn3)C2)C1 (stereo unspecified),-9.98
18,O=C(CCc1nnc(-c2ccsc2)o1)NCC1CCN(C2CC2)C1 (stereo unspecified),-4.06
19,COc1cccc(C2CC(=O)Nc3c2c(=O)n(C)c2ncnn32)c1 (stereo unspecified),16.7
20,Cn1ncc(C(=O)N2CCN(CCS(C)(=O)=O)CC2)c1Cl,18.4
21,Cc1cc(F)cc(S(=O)(=O)NCCCN2CCC(O)CC2)c1,11.3

row,Structure (SMILES),cytotoxicity at 70.5 h [%]
1,CN(C)C(CNC(=O)c1nc(N2CCOCC2)ncc1Cl)c1cccs1 (stereo unspecified),-8.97
2,CC1(C(=O)NCc2cccnc2Oc2ccc(F)c(F)c2)CCCNC1 (stereo unspecified),8.1
3,COCCC1(C(=O)O)CCCN(CC(=O)NCCc2ccccc2)C1 (stereo unspecified),27.1
4,Cc1nc(Oc2ccccc2Cl)sc1C(=O)O,-15.5
5,CCCC(=O)N1CCC(Nc2nc(O)cc(-c3ccsc3)n2)CC1,-3.98
6,Cc1ncccc1CNC(CCO)C1CCCCC1 (stereo unspecified),1.16
7,CC(C)=CCC1(CO)CCCN(S(=O)(=O)N2CCCC2)C1 (stereo unspecified),-14.7
8,Cc1ncnc2c1CCN(c1ccccn1)CC2,-14
9,CS(=O)(=O)c1snnc1C1CCN(Cc2cccc(O)c2)CC1,-7.7
10,O=C1CC(N2CCN(c3ccc(F)cc3)CC2)C(=O)N1Cc1cccs1 (stereo unspecified),-12.3
11,CCN1CCOC(CNCc2ccccc2OCc2ccncc2)C1 (stereo unspecified),14.2
12,CO[C@H]1CN(C(=O)c2ccc(-c3ccccc3)[nH]2)CC[C@H]1N,-10.1
13,CC(C)c1noc(CCNC(=O)NCC2Cc3ccccc3O2)n1 (stereo unspecified),-13.5
14,CCc1nc(C)c(C(=O)NCCNc2ncnc3sccc23)s1,4.06
15,Cn1cc(CN2CC[C@H]3O[C@@H](COCc4cccnc4)CC[C@H]32)cn1,-12
16,Cc1nn(C)c(N2CCOCC2)c1CNCc1ccc(CO)c(F)c1,-0.89
17,Cc1nccc(-c2cccc(NCC(=O)N3CCNC3=O)c2)n1,-0.295
18,CC(C)(C(=O)NCC1CC1)c1ccccc1F,-4.02
19,CCc1ccc(NC(=O)C2OC(c3cccs3)=NN2C(C)=O)cc1 (stereo unspecified),40.2
20,Nc1cc2c(nn1)CCN(C(=O)c1cccc3c1OCO3)C2,2.4
21,COc1ccc2c(ccn2CCC(=O)/N=c2\[nH]nc(C3CCCO3)s2)c1 (stereo unspecified),-15.5

row,Structure (SMILES),cytotoxicity at 70.5 h [%]
1,Cc1nc(CNC(=O)c2cc(COc3ccccc3)[nH]n2)n[nH]1,-5.91
2,c1cncc(-c2ccc3c(c2)C2(CCNCC2)CC3)c1,52.4
3,COCC(C)N(Cc1ccccc1OC)C(=O)c1cc(C)[nH]c(=O)c1 (stereo unspecified),-5.15
4,CC(C)Cc1noc(CN2CCOCC2)n1,-0.996
5,O=C(N[C@@H]1CCC[C@@H](N2CCOCC2)[C@@H]1O)c1cnn2cccnc12,-1.42
6,Cc1cc(C)nc(N2CCC(C(=O)Nc3ncc[nH]3)CC2)n1,-7.67
7,Cn1cc(CN2CCc3c(nc(-c4ccccn4)[nH]c3=O)C2)cn1,-23.4
8,CN(C)c1cncc(C2CCN(CC(N)=O)CC2)n1,-0.457
9,O=C(NCCc1c[nH]cn1)C1CCCN(C2CCOCC2)C1 (stereo unspecified),-5.69
10,COc1ccc(CCNC(=O)C(C)Nc2ccc(C)c(C)c2)cc1 (stereo unspecified),21
11,Cc1csc(C2CCCN(C(=O)c3cccc4c3OCO4)C2)n1 (stereo unspecified),-4.7
12,CN(Cc1ccccc1)c1ncccc1CNC(=O)c1ccnn1C,-10.4
13,O=C(c1cnn(-c2ccccc2F)c1)N1CCN(CCO)CC1,-3.38
14,OCc1ccccc1CNCC1CNc2ccnn2C1 (stereo unspecified),-1.22
15,O=C1OCCN1Cc1cccc(F)c1C(F)(F)F,-5.55
16,CCN(C(=O)CNc1cc(C)c(F)cc1C(N)=O)C1CC1,0.591
17,O=C(NCc1ccccn1)c1cc2n(n1)CCNC2,-3.91
18,Cc1cnn(CC2CN(CC(=O)Nc3cccnc3)CCO2)c1 (stereo unspecified),-4.29
19,CCN1CCc2c(cccc2NC(=O)N(C)C2CCSC2)C1 (stereo unspecified),-10.8
20,O=C(c1ccc(Cl)cc1F)N1CCC(Cn2cc(CO)nn2)CC1,-5.57
21,CCN(CC)Cc1nc(Cc2cccc(C(F)(F)F)c2)no1,-7.89

row,Structure (SMILES),cytotoxicity at 70.5 h [%]
1,O=C(C1=CCCCC1)N1CCO[C@H]2[C@H](Oc3ccccn3)CC[C@@H]21,-9.07
2,Cc1ccc(C(O)CN(C)Cc2cnn(C)c2)cc1C (stereo unspecified),-1.99
3,CCNc1ncc(C)c(-c2cnn(C)c2)n1,-13.2
4,CCOc1ncccc1Cn1cc(-c2nccn2C)nn1,-10.3
5,COCCCNC(=O)N1CCC(CNC(=O)c2cnn(C)c2)CC1,-8.18
6,Cc1ccc(S(=O)(=O)N2CCC(Cn3cc(C(C)(C)N)nn3)CC2)s1,-6.09
7,CN1CCC(Cc2noc(-c3cccc(Oc4ncccn4)c3)n2)CC1,-2
8,O=C([C@H](O)c1ccccc1)N1CCN(c2cccc(Cl)c2)C(=O)C1,13.8
9,Cn1cnc2c1CCN(CC(O)c1ccc3c(c1)OCCO3)C2 (stereo unspecified),9.43
10,CN(c1ccc(F)c(F)c1)S(=O)(=O)c1cc2c(c(C(=O)O)c1)OCCO2,-7.51
11,CCCc1noc(CN2CCC(NC(=O)c3ccc(C)s3)CC2)n1,-4.33
12,O=C(c1cc(Cl)ccc1OC1CCN(C2CCCC2)CC1)N1CCCO1,11.8
13,CC(C(=O)Nc1cnn(CC(N)=O)c1)c1ccc(Cl)s1 (stereo unspecified),-4.91
14,O=C(NC1CC1)[C@@H]1C[C@@H]2CCN(Cc3ccoc3)C[C@@H]2O1,-8.25
15,CN(Cc1cnccn1)C(=O)[C@@]12CNC[C@@H]1CN(Cc1ccccc1)C2,-11.2
16,Cc1cc(CN2CC[C@H]3C[C@H](C(=O)N4CCC(C)CC4)O[C@H]3C2)no1,-9.04
17,CC(SCc1ccc(Br)c2cccnc12)C(N)=O (stereo unspecified),18.2
18,CNC(=O)C1Cn2ccnc2C2(CCN(C(=O)NC3CCCC3)CC2)O1 (stereo unspecified),-9.83
